Test results from paper PMC12423301, “Astrocytic monoamine oxidase B (MAOB)–gamma-aminobutyric acid (GABA) axis as a molecular brake on repair following spinal cord injury” (Signal Transduction and Targeted Therapy, 2025).
“Also recorded” adds a separate entry of the source.

Key:
rat SCI model [1] = experiment: EC / LFB staining of rat spinal cord tissue; assay type: in vivo, Sprague-Dawley (SD) rats
Procedure: EC staining was performed as previously described.[71] The tissue sections were placed on a microscope slide, allowed to dry for 2 h, and then immersed in acetone for 5 min. The slides were incubated for 10 min at 22 ± 2 °C and then treated with EC solution (MERCK, Kenilworth, NJ, USA) for 30 min at 22 ± 2 °C. After the sections were rinsed with running water, they were placed on 5% iron alum (Sigma-Aldrich, F3629) until the gray matter was observed. The sections were differentiated using borax-ferricyanide solution (Borax, Sigma-Aldrich, 71997; Potassium ferricyanide, Sigma-Aldrich, 702587) and dehydrated using graded ethanol solutions of 70%, 90%, and 100% which were changed twice. The sections were mounted with permanent mounting medium (Fisher Scientific, Hampton, NH, USA) and finally observed under a light microscope (DM 2500, Leica, Wetzlar, Germany). LFB staining was performed as previously described.[70] The myelin sheath of axons in the tissue sections were stained with 1% luxol fast blue (Sigma-Aldrich, L0294) at 60 °C overnight. The sections were rinsed with lithium carbonate (Sigma-Aldrich, 255823) solution and differentiated by 70% alcohol and then observed under a light microscope (IX71, Olympus, Tokyo, Japan).

rat SCI model [2] = experiment: Immunohistochemistry of injured rat spinal cord; assay type: in vivo, Sprague-Dawley (SD) rats
Procedure: Immunohistochemistry was performed as previously described.[70] The tissue sections were blocked and treated with primary antibodies. After overnight incubation at 4 °C, species-specific fluorescent secondary antibodies were applied for visualization. The tissue sections were then stained with 4’,6-diamidino-2-phenylindole (DAPI) during mounting. This protocol allows a detailed assessment of various cellular markers involved in SCI and recovery processes.
The secondary antibodies used included FITC-donkey anti-mouse IgG (H + L) (1:150, 715-095-151), Cy^TM3-donkey anti-mouse IgG (H + L) (1:600, 715-165-151), FITC-donkey anti-rabbit IgG (H + L) (1:150, 711-095-152), Alexa Fluor 594-donkey anti-rabbit IgG (H + L) (1:500, 711-585-152), Alexa Fluor 647-donkey anti-rabbit IgG (H + L) (1:500, 711-605-152), Cy^TM3-donkey anti-chicken IgG (H + L) (1:600, 703-165-155), DyLightTM405-donkey anti-chicken IgY + + (H + L) (1:600, 703-476-155), Alexa Fluor 488-donkey anti-chicken IgY (IgG) (H + L) (1:500, 703-545-155), Alexa Fluor 594-donkey anti-chicken IgY (IgG) (H + L) (1:500, 703-585-155), Alexa Fluor 488-donkey anti-goat IgG (H + L) (1:500, 705-545-003), and Alexa Fluor 647-donkey anti-goat IgG (H + L) (1:300, 705-606-147). All secondary antibodies were purchased from Jackson ImmunoResearch.
The fluorescence images were observed via confocal laser scanning microscopy (LSM700 or LSM710, Carl Zeiss), and analyzed via the ImageJ (NIH) software. For visualizing the mCh-positive signals of proliferating or proliferated cells, Z-stack images acquired in 1-μm steps were processed for 3D surface rendering of mCh-positive signals using IMARIS software (version 9.0.1, Oxford Instruments).

APP/PS1 transgenic mice = experiment: Cognitive tests in APP/PS1 transgenic mice; assay type: in vivo, mouse
[3] = SCI + KDS 2w vs SCI + V, PI 10w
[4] = SCI+KDS 10mpk, 20mpk, and 30mpk vs SCI+V, PI 10w
[5] = SCI+KDS 1d/Re vs SCI+V and SCI+KDS 1d/No, PI 10w

**Q.** With `CS(=O)(=O)O.C[C@H](NCc1ccc(-c2ccc(C(F)(F)F)cc2)cc1)C(N)=O` [KDS2010, (S)-2-(((4’-Trifluoromethylbiphenyl-4-yl)methyl)amino)propanamide methane-sulfonate] as the compound, how does the “tissue recovery (total cord area, myelinated area)” value (rat SCI model [1]; 10, 20, and 30 mpk, PI 10w) read?
**A.** significant tissue recovery

**Q.** And the “total spinal cord, myelinated, gray matter areas and cavity size (EC staining)” value (rat SCI model [1]; [3])?
**A.** significantly recovered

**Q.** And the “total spinal cord and myelinated areas” value (rat SCI model [1]; SCI + KDS 1 d/Re, PI 10w)?
**A.** significantly recovered

**Q.** What about the “total spinal cord and myelinated areas” value (rat SCI model [1]; SCI+KDS 6w vs SCI+V, PI 14w) of the same compound?
**A.** tendency toward larger; also recorded: increasing trend

**Q.** What about the GFAP intensity (rat SCI model [2]; KDS2010 treatment compared with SCI + V) of the same compound?
**A.** significantly reduced

**Q.** And the “intensity of TrkB in neurons, oligodendrocytes, and astrocytes” value (rat SCI model [2]; MAOB inhibition from the subacute phase, PI 10w)?
**A.** significantly increased

**Q.** What about the “neurons positive for both Ki67 and NeuN” value (rat SCI model [2]; [3]) of the same compound?
**A.** significantly increased; also recorded: significant increase

**Q.** What about the “intensity of GABA in GFAP-positive astrocytes” value (rat SCI model [2]; SCI + KDS 2w, 10 mpk, PI 10w) of the same compound?
**A.** significantly recovered; also recorded: significantly attenuated

**Q.** What about the MAP2 intensity (rat SCI model [2]; SCI + KDS 2w, PI 10w) of the same compound?
**A.** fully restored

**Q.** What about the MBP intensity (rat SCI model [2]; SCI + KDS 2w, PI 10w) of the same compound?
**A.** significant recovery

**Q.** And the “expression of astrocytic GFAP and MAOB” value (rat SCI model [2]; SCI + KDS 2w, PI 10w)?
**A.** returned to normal levels

**Q.** What about the “intensity of proBDNF in astrocytes and neurons” value (rat SCI model [2]; SCI + KDS 2w, PI 10w) of the same compound?
**A.** significantly increased

**Q.** And the “number of NeuN-positive neurons” value (rat SCI model [2]; SCI + KDS 2w, PI 10w)?
**A.** significant recovery

**Q.** What about the “oligodendrocytes positive for both Ki67 and MBP” value (rat SCI model [2]; SCI + KDS 2w, PI 10w) of the same compound?
**A.** substantial population; also recorded: significantly increased

**Q.** And the “intensity of GABA and astrocytic DAO” value (rat SCI model [2]; SCI+KDS 6w)?
**A.** significantly reduced

**Q.** What about the “intensity of proBDNF” value (rat SCI model [2]; SCI+KDS 6w vs SCI+V) of the same compound?
**A.** significantly increased

**Q.** And the “astrocytic GFAP and MAOB expression” value (rat SCI model [2]; SCI+KDS 6w vs SCI+V, PI 14w)?
**A.** significantly decreased

**Q.** What about the “intensity of MAP2” value (rat SCI model [2]; SCI+KDS 6w vs SCI+V, PI 14w) of the same compound?
**A.** significant increase

**Q.** And the “intensity of MBP-positive TrkB” value (rat SCI model [2]; SCI+KDS 6w vs SCI+V, PI 14w)?
**A.** significantly increased

**Q.** What about the “intensities of GFAP and GABA” value (rat SCI model [2]; [4]) of the same compound?
**A.** significantly reduced

**Q.** What about the “intensity of MAP2” value (rat SCI model [2]; [4]) of the same compound?
**A.** significant increase

**Q.** And the “intensity of MBP” value (rat SCI model [2]; [4])?
**A.** significant recovery

**Q.** And the “intensity of MBP-positive TrkB” value (rat SCI model [2]; [4])?
**A.** significant recovery

**Q.** What about the “intensity of astrocytic DAO” value (rat SCI model [2]; [4]) of the same compound?
**A.** significantly decreased

**Q.** And the “intensity of proBDNF” value (rat SCI model [2]; [4])?
**A.** significantly increased

**Q.** What about the GFAP levels (rat SCI model [2]; SCI+KDS 1d/No) of the same compound?
**A.** persistently high GFAP levels

**Q.** What about the “alternative diamine oxidase (DAO) pathway” value (rat SCI model [2]; SCI+KDS 1d/No) of the same compound?
**A.** activated

**Q.** What about the “intensity of GABA and astrocytic DAO” value (rat SCI model [2]; SCI+KDS 1d/Re) of the same compound?
**A.** significantly reduced

**Q.** And the “intensity of proBDNF” value (rat SCI model [2]; SCI+KDS 1d/Re vs SCI+V and SCI+KDS 1d/No)?
**A.** significantly increased

**Q.** And the “astrocytic GFAP and MAOB expression” value (rat SCI model [2]; [5])?
**A.** significantly decreased

**Q.** And the “intensity of MAP2” value (rat SCI model [2]; [5])?
**A.** significant increase

**Q.** What about the “astrocytic MAOB expression” value (rat SCI model [2]; all doses (10mpk, 20mpk, 30mpk) vs SCI+V, PI 10w) of the same compound?
**A.** significant reduction

**Q.** What about the “expression of CSPGs (neurocan, phosphacan)” value (rat SCI model [2]; rat SCI, KDS2010 treatment) of the same compound?
**A.** notably reduced

**Q.** And the passive avoidance test (APP/PS1 transgenic mice; 1 mg/kg and 10 mg/kg, repeated administration for 2 weeks, vs APP/PS1 control group)?
**A.** statistically significant cognitive function improvement effect

**Q.** What about the “Morris water maze test” value (APP/PS1 transgenic mice; 10 mg/kg for 27 to 37 days) of the same compound?
**A.** statistically significant improvement

**Q.** What about the cognitive function (APP/PS1 transgenic mice; 4-week repeated dosing test) of the same compound?
**A.** statistically significant cognitive function effect
